Data reported in patent publication US20200325509A1, “Microorganisms and Methods in the Fermentation of Benzylisoquinoline Alkaloids” (Intrexon Corporation, priority 2017, published 2020).

How the values were obtained:
[1] = biological target: THS2 (Papaver somniferum, UniProt A0A2U9GGW3); assay: direct in vitro THS assay (kinetic analysis of THS2); settings: for inhibition of THS2 activity on (7S)-salutaridinol 7-O-acetate: added to the direct assay
[2] = stability of salutaridinol 7-O-acetate in chloroform and aqueous conditions
[3] = substrate of purified recombinant THS2, direct assay quenched after 30 sec

Sequence of THS2 (A0A2U9GGW3 whole entry): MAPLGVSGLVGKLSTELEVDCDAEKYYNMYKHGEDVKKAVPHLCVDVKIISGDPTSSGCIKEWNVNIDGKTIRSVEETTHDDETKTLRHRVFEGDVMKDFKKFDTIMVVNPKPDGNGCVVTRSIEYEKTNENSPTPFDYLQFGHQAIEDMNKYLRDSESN

| Compound | pH optimum ([1]; THS2 activity on this substrate, direct assay 30 sec, 40 μM substrate) | positive cooperativity (η) ([1]; substrate of purified recombinant THS2, direct assay) | KA [1, 3] | Vmax [1, 3] | formation of m/z 330-byproduct ([2]; exposure to aqueous conditions) | time of formation of m/z 330-byproduct ([2]; exposure to aqueous conditions) | stability ([2]; in chloroform) | inhibition of THS2 activity on (7S)-salutaridinol 7-O-acetate [1] | thebaine production by THS2 directly from the substance ([1]; pH 7.0) |
| --- | --- | --- | --- | --- | --- | --- | --- | --- | --- |
| COC1=C[C@]23CCN(C)[C@H](Cc4ccc(OC)c(O)c42)C3=C[C@@H]1OC(C)=O [(7S)-salutaridinol 7-O-acetate] | 8.0 | 2.3 | 20 µM | 4.0 nmol min^1 μg^−1 | > 70% | < 2 min | relatively stable |  |  |
| COC1=C[C@]23CCN(C)[C@H](Cc4ccc(OC)c(O)c42)C3=C[C@@H]1O [(7S)-salutaridinol] |  |  |  |  |  |  |  | marginally inhibited | did not produce thebaine |
| COC1=C[C@]23CCN(C)[C@H](Cc4ccc(OC)c(O)c42)C3=CC1=O [salutaridine] |  |  |  |  |  |  |  | marginally inhibited |  |
